Patent publication US11123311B2, “Methods of treating mental disorders” (The Regents of the University of California, priority 2016, dated 2021)

Tests used:
neuronal cell cultures = conditions: literature (34); cited from earlier work
PC12 cells = assay: NGF-induced neurite outgrowth in PC12 cells; type: cell-based; conditions: TPPU 0.1, 1.0 or 10 μM, 14,15-EET 0.01, 0.1 or 1.0 μM, concentration dependent
Description: PC12 cells (RIKEN Cell Bank, Tsukuba, Japan) were cultured at 37° C., 5% CO2 in Dulbecco's modified Eagle's medium (DMEM), supplemented with 5% heat-inactivated fetal bovine serum (FBS), 10% heat-inactivated horse serum, and 1% penicillin-streptomycin. Medium was changed two to three times a week. PC12 cells were plated onto 24-well tissue culture plates coated with poly-D-lysine/laminin. Cells were plated at relatively low density (0.25×10^4 cells/cm^2) in DMEM medium containing 0.5% FBS, 1% penicillin-streptomycin. Medium containing a minimal level of serum (0.5% FBS) was used as previously reported (58-60). […]. Four days after incubation with NGF (2.5 ng/ml) with or without specified compounds, morphometric analysis was performed on digitized images of live cells taken under phase-contrast illumination, with an inverted microscope linked to a camera. Images of three fields per well were taken, with an average of 100 cells per field. Differentiated cells were counted by visual examination of the field; only cells that had at least one neurite with a length equal to the cell body diameter were counted, and were then expressed as a percentage of the total cells in the field. Counting was performed in a blinded manner.

astrocyte = conditions: literature (54); cited from earlier work
sEH [1] = target: T1, sEH (Homo sapiens (Human), UniProt P34913); assay: inhibition of sEH (standard assays); type: biochemical
T1 sequence (P34913 whole entry): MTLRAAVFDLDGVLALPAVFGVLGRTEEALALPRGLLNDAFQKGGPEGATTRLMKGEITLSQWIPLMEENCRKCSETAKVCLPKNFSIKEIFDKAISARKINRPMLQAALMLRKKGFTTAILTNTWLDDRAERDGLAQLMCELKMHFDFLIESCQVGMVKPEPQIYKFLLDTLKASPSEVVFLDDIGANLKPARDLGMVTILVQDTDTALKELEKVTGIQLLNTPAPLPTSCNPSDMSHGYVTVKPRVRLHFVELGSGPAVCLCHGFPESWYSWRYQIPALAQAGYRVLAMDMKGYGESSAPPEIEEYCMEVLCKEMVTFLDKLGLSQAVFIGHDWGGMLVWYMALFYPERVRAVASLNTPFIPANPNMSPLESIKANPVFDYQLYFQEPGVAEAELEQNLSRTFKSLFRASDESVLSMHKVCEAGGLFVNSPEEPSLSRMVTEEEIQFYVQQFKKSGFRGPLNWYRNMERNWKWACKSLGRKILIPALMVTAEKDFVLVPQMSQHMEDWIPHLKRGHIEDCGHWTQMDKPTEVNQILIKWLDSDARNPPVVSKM
Excerpt: Any of a number of standard assays for determining epoxide hydrolase activity can be used to determine inhibition of sEH. […] Suitable in vitro assays are described in Zeldin et al., J Biol. Chem. 268:6402-6407 (1993). Suitable in vivo assays are described in Zeldin et al., Arch Biochem Biophys 330:87-96 (1996).
The enzyme also can be detected based on the binding of specific ligands to the catalytic site which either immobilize the enzyme or label it with a probe such as dansyl, fluoracein, luciferase, green fluorescent protein or other reagent. The enzyme can be assayed by its hydration of EETs, its hydrolysis of an epoxide to give a colored product as described by Dietze et al., 1994, supra, or its hydrolysis of a radioactive surrogate substrate (Borhan et al., 1995, supra). The enzyme also can be detected based on the generation of fluorescent products following the hydrolysis of the epoxide. Numerous methods of epoxide hydrolase detection have been described (see, e.g., Wixtrom, supra).
The assays are normally carried out with a recombinant enzyme following affinity purification. They can be carried out in crude tissue homogenates, cell culture or even in vivo, as known in the art and described in the references cited above.

experimental logP = type: physicochemical; conditions: read-out: Exp/ logP
sEH [2] = target: T1, sEH
[3] = tested on: mice after social defeat stress; conditions: single dose; literature (37,39); cited from earlier work
TNF-α = assay: serum TNF-α after LPS administration; type: in vivo; conditions: TPPU 3.0 mg/kg PO
Description: Inflammation model of depression. The procedure of inflammation model of depression was performed as previously reported (36). Behavioral tests were performed 24 hours after a single administration of LPS (0.5 mg/kg). […] Serum sample was collected 90 min after LPS administration, and serum levels of TNF-α were measured using a Ready-SET-Go ELISA kit (eBioscience Inc., San Diego, Calif.), according to manufacturer's instructions. […] Behavioral tests including locomotion (LMT), tail suspension test (TST), and forced swimming test (FST) were performed 1, 3, and 5 hours after administration. […] Behavioral tests including LMT, TST, and FST were performed 24, 26, and 28 hours after administration of LPS.

in vivo = conditions: mouse, po, 3 mg/kg, 3 mg/kg PO, mice
[4] = 3 mg/kg PO; mice
[5] = tested on: LPS-treated depressed mice; conditions: literature (36); cited from earlier work

## CCCCCC1OC1C/C=C\C/C=C\C/C=C\CCCC(=O)O (stereo not drawn) [14,15-EET]
Neuronal cell cultures
  axonal growth: enhance axonal growth
PC12 cells
  NGF-induced neurite outgrowth: potentiated
astrocyte
  production of BDNF: promote the production of BDNF

## CCCCCCCCCCCCNC(=O)NC12CC3CC(CC(C3)C1)C2 [ADU, N-Adamantyl-N′-dodecyl urea]
sEH [1]
  activity as an inhibitor of sEH: particularly high activity

## O=C(Nc1ccc(OC(F)(F)F)cc1)NC1CCN(C(=O)C2(C(F)(F)F)CC2)CC1 [Compound 28]
Experimental logP
  logP: 4.63

## CC[C@H](C)C(=O)N1CCC(NC(=O)Nc2ccc(C(F)(F)F)nc2)CC1 [Compound 42]
Experimental logP
  logP: 3.22
sEH [2]
  t1/2 (human sEH): 0.0617 h

## CC(C)C(=O)N1CCC(NC(=O)Nc2ccc(OC(F)(F)F)cc2)CC1 [Compound 2389]
Experimental logP
  logP: 3.37
sEH [2]
  t1/2 (human sEH): 0.3 h

## CN[C@@]1(c2ccccc2Cl)CCCCC1=O [R-ketamine]
[3]
  antidepressant effect in the social defeat stress model: rapid antidepressant effect

## CCC(=O)N1CCC(NC(=O)Nc2ccc(OC(F)(F)F)cc2)CC1 [TPPU]
TNF-α
  serum levels of TNF-α in control mice: no effect
In vivo; half-life in the blood (plasma)
  half-life: 17.8 h
In vivo; half-life in the cerebral cortex
  half-life: 10.7 h
[4]
  half-life in the blood (plasma): 17.8 h
  half-life in the cerebral cortex: 10.7 h

## CNC1(c2ccccc2Cl)CCCCC1=O (stereo not drawn) [ketamine]
[3]
  antidepressant effect in the social defeat stress model: rapid antidepressant effect

## Fc1ccc([C@@H]2CCNC[C@H]2COc2ccc3c(c2)OCO3)cc1 [paroxetine]
[5]
  effect in the LPS-induced inflammation model of depression: do not have any effect

## COc1ccc(C(CN(C)C)C2(O)CCCCC2)cc1 (stereo not drawn) [venlafaxine]
[5]
  effect in the LPS-induced inflammation model of depression: do not have any effect
